Reference: ChEMBL document CHEMBL4665852, “Hydroxylated Ethacrylic and Tiglic Acid Derivatives from the Stems and Branches of Enkianthus chinensis and Their Potential Anti-inflammatory Activities” (J Nat Prod, 2020)

Key:
Peritoneal macrophage [1] = test: Cytotoxicity against C57BL/6J mouse Peritoneal macrophages assessed as reduction in cell growth incubated for 1 hr; assay type: cell-based
Peritoneal macrophage [2] = test: Antiinflammatory activity in C57BL/6J mouse peritoneal macrophages assessed as inhibition of LPS-induced NO production preincubated for 1 hrs followed by LPS-stimulation and measured after 24 hrs by Griess reagent-based assay relative to control; assay type: functional, cell-based
Peritoneal macrophage [3] = test: Antiinflammatory activity in C57BL/6J mouse peritoneal macrophages assessed as inhibition of LPS-induced NO production at 10 uM preincubated for 1 hrs followed by LPS-stimulation and measured after 24 hrs by Griess reagent-based assay relative to control; assay type: functional; details: time 25 hrs

Structure (SMILES) | Activity (Peritoneal macrophage [1]) | IC50 (Peritoneal macrophage [2]) [µM] | inhibition at 10 µM (Peritoneal macrophage [3]) [%]
C/C=C(\CO)C(=O)OC/C(=C\CO)C(=O)OC | Non-Toxic | 1.2 | 84.9
CC[C@](O)(C(=O)OC/C(=C\CO)C(=O)OC)[C@@H](C)O | Non-Toxic | 2.9 | 64.3
